According to patent publication US8865756B2, “Inhibitors of HCV NS5A” (Presidio Pharmaceuticals, Inc., priority 2008, dated 2014):

What follows are compounds tested on HCV 1b_Huh-Luc/Neo-ET cell line persistently expressing a bicistronic genotype 1b replicon in Huh 7 cells (assay: HCV replicon assay (luciferase readout)). Settings: Hepatitis C virus, Huh-7, 72 h, read-out: Inhibition of HCV genotype 1b.
Format: cell-based
Summary of the method: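 Huh 7 cells carrying a genotype 1b luciferase/neo replicon treated in triplicate for 72 h, then luciferase activity measured. Signal expressed as % of control; EC50 from four-parameter logistic fit, determined several times.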
`COC(=O)N[C@@H](C(=O)N1CCC[C@H]1c1ncc(-c2ccc(C#Cc3ccc(-c4cnc([C@@H]5CCCN5C(=O)[C@@H]5CCCO5)[nH]4)cc3)cc2)[nH]1)c1ccccc1` [Compound 186] was tested, and the EC50 was < 1 nM. With `COC(=O)N[C@H](C(=O)N1CCC[C@H]1c1ncc(C#Cc2ccc(-c3ccc4nc([C@@H]5CCCN5C(=O)[C@H](NC(=O)OC)c5ccccc5)[nH]c4c3)nc2)[nH]1)C(C)C` [Compound 1087] the EC50 was < 1 nM. For `CC(=O)N[C@@H](C(=O)N1CCC[C@H]1c1ncc(-c2ccc(C#Cc3ccc(-c4cnc([C@@H]5CCCN5C(=O)[C@H](NC(C)=O)c5ccccc5)[nH]4)cc3)cc2)[nH]1)c1ccccc1` [Compound 158], the EC50 was < 1 nM. In the case of `C[C@@H](c1ncc(-c2ccc(C#Cc3ccc(-c4cnc([C@@H]5CCCN5C(=O)[C@H](NC(=O)OC(C)(C)C)c5ccccc5)[nH]4)cc3)cc2)[nH]1)N(C)C(=O)[C@H](NC(=O)OC(C)(C)C)c1ccccc1` [Compound 265], the EC50 is reported as < 1 nM. In the case of `COC(=O)N[C@@H](C(=O)N1CCC[C@H]1c1ncc(-c2ccc(C#Cc3ccc(-c4cnc([C@@H]5CCCN5C(=O)[C@H](NC(=O)N5CCC[C@@H]5C)c5ccccc5)[nH]4)cc3)cc2)[nH]1)c1ccccc1` [Compound 261], the EC50 is reported as < 1 nM. With `COC(=O)N[C@@H](C(=O)N1CCC[C@H]1c1ncc(-c2ccc(C#Cc3ccc(-c4cnc([C@@H]5CCCN5C(=O)[C@H](NC(=O)[C@H]5CCCO5)c5ccccc5)[nH]4)cc3)cc2)[nH]1)c1ccccc1` [Compound 201] the EC50 was < 1 nM. `COC(=O)N[C@H](C(=O)N1CCC[C@H]1c1ncc(-c2ccc(C#Cc3ccc(-c4cnc([C@@H]5CCCN5C(=O)[C@@H](c5ccccc5)N5CCOC5=O)[nH]4)cc3)cc2)[nH]1)C(C)C` [Compound 1007] was tested, and the EC50 was < 1 nM. With `COC(=O)N[C@H](C(=O)N1CCC[C@H]1c1nc2c([nH]1)-c1ccc(C#Cc3ccc(-c4cnc([C@@H]5CCCN5C(=O)[C@@H](NC(=O)OC)C5CCOCC5)[nH]4)cc3)cc1CCC2)C(C)C` [Compound 1097] the EC50 was < 1 nM. In the case of `COC(=O)N[C@@H](C(=O)N1CCC[C@H]1c1cc(-c2ccc(C#Cc3ccc(-c4cnc([C@@H]5CCCN5C(=O)[C@H](NC(=O)OC)c5ccccc5)[nH]4)cc3)cc2)n[nH]1)c1ccccc1` [Compound 219], the EC50 is reported as < 1 nM. In the case of `CC(C)(C)OC(=O)N[C@@H](C(=O)N1CCC[C@H]1C(=O)Nc1ccc(C#Cc2cnc([C@@H]3CCCN3C(=O)[C@H](NC(=O)OC(C)(C)C)c3ccccc3)[nH]2)cc1)c1ccccc1` [Compound 115], the EC50 is reported as < 1 nM. With `COC(=O)N[C@@H](C(=O)N1CCC[C@H]1c1ncc(-c2ccc(C#Cc3ccc(-c4cnc([C@@H]5CCCN5C(=O)[C@H](NC(=O)N5CCC[C@H]5CO)c5ccccc5)[nH]4)cc3)cc2)[nH]1)c1ccccc1` [Compound 255] the EC50 was < 1 nM. In the case of `CN(C)[C@@H](C(=O)N1CCC[C@H]1c1ncc(-c2ccc(C#Cc3cnc([C@@H]4CCCN4C(=O)[C@H](NC(=O)C4CC4)c4ccccc4)[nH]3)cc2)[nH]1)c1ccccc1` [Compound 131], the EC50 is reported as < 1 nM. In the case of `COC(=O)NC(C(=O)N1CCC[C@H]1c1ncc(-c2ccc(C#Cc3ccc(-c4cnc([C@@H]5CCCN5C(=O)[C@H](NC(=O)OC)[C@H](C)O)[nH]4)cc3)cc2)[nH]1)[C@H](C)O` (stereo partly drawn) [Compound 978], the EC50 is reported as 10 to 999 nM. In the case of `COC(=O)N[C@H](C(=O)N1CCC[C@H]1c1ncc(-c2ccc(C#Cc3ccc(-c4cnc([C@@H]5CCCN5C(=O)[C@H](NC(=O)OC)c5ccccc5)[nH]4)cc3)cc2)[nH]1)C(C)C` [Compound 1002], the EC50 is reported as < 1 nM. With `O=C(N[C@@H](C(=O)N1CCC[C@H]1c1ncc(-c2ccc(C#Cc3ccc(-c4cnc([C@@H]5CCCN5C(=O)[C@@H](c5ccccc5)N5CCOCC5)[nH]4)cc3)cc2)[nH]1)c1ccccc1)C1CC1` [Compound 237] the EC50 was < 1 nM. In the case of `CC(C)(C)OC(=O)N[C@@H](C(=O)N1CCC[C@H]1CNC(=O)c1ccc(C#Cc2ccc(-c3cnc([C@@H]4CCCN4C(=O)[C@H](NC(=O)OC(C)(C)C)c4ccccc4)[nH]3)cc2)cc1)c1ccccc1` [Compound 192], the EC50 is reported as 1 to 9.9 nM. With `COC(=O)N[C@@H](C(=O)N1CCC[C@H]1c1ncc(-c2ccc(C#Cc3ccc(-c4cnc([C@@H]5CCCN5C(=O)[C@H](NC(=O)N5CCC[C@@H]5CO)c5ccccc5)[nH]4)cc3)cc2)[nH]1)c1ccccc1` [Compound 254] the EC50 was < 1 nM. In the case of `COC(=O)N[C@H](C(=O)N1CCC[C@H]1c1ncc(-c2ccc(C#Cc3ccc(-c4cnc([C@@H]5CCCN5C(=O)[C@H](NC(=O)N5CC[C@@H](O)C5)c5ccccc5)[nH]4)cc3)cc2)[nH]1)C(C)C` [Compound 975], the EC50 is reported as < 1 nM. With `CS(=O)(=O)N[C@@H](C(=O)N1CCC[C@H]1c1ncc(-c2ccc(C#Cc3ccc(-c4cnc([C@@H]5CCCN5C(=O)[C@@H](c5ccccc5)N5CCOCC5)[nH]4)cc3)cc2)[nH]1)c1ccccc1` [Compound 232] the EC50 was < 1 nM. In the case of `COC(=O)N[C@H](C(=O)N1CCC[C@H]1c1nc2ccc3cc(C#Cc4ccc(-c5cnc([C@@H]6CCCN6C(=O)[C@H](NC(=O)OC)c6ccccc6)[nH]5)cc4)ccc3c2[nH]1)C(C)C` [Compound 1093], the EC50 is reported as < 1 nM. For `COC(=O)N[C@H](C(=O)N1CCC[C@H]1c1ncc(-c2ccc(C#Cc3ccc(-c4cnc([C@@H]5CCCN5C(=O)[C@@H](c5ccccc5)N5CCOCC5)[nH]4)cc3)cc2)[nH]1)C(C)C` [Compound 987], the EC50 was < 1 nM. For `CC(C)[C@H](NC(=O)N1CCN(C)CC1)C(=O)N1CCC[C@H]1c1ncc(-c2ccc(C#Cc3ccc(-c4cnc([C@@H]5CCCN5C(=O)[C@@H](NC(=O)N5CCN(C)CC5)C(C)C)[nH]4)cc3)cc2)[nH]1` [Compound 287], the EC50 was > 1000 nM. `C[C@@H](NC(=O)[C@@H]1CCCN1C(=O)[C@H](NC(=O)OC(C)(C)C)c1ccccc1)c1ccc(C#Cc2cnc([C@@H]3CCCN3C(=O)[C@H](NC(=O)OC(C)(C)C)c3ccccc3)[nH]2)cc1` [Compound 129] was tested, and the EC50 was 10 to 999 nM. For `COC(=O)N[C@@H](C(=O)N1CCC[C@H]1c1ncc(-c2ccc(C#Cc3ccc(-c4cnc([C@@H]5CCCN5C(=O)C5CCN(C)CC5)[nH]4)cc3)cc2)[nH]1)c1ccccc1` [Compound 182], the EC50 was < 1 nM. With `CC(C)[C@@H](NC(=O)OC(C)(C)C)C(=O)N1CCC[C@H]1C(=O)NCCc1ccc(C#Cc2cnc([C@@H]3CCCN3C(=O)[C@H](NC(=O)OC(C)(C)C)C(C)C)[nH]2)cc1` [Compound 126] the EC50 was 10 to 999 nM. `COC(=O)N[C@H](C(=O)N1CCC[C@H]1c1ncc(-c2ccc(C#Cc3ccc4nc([C@@H]5CCCN5C(=O)[C@@H](NC(=O)OC)[C@H](C)O)[nH]c4c3)cc2)[nH]1)[C@H](C)O` [Compound 1031] was tested, and the EC50 was < 1 nM. With `CC(C)[C@H](NC(=O)[C@H](NC(=O)OC(C)(C)C)c1ccccc1)c1ncc(-c2ccc(C#Cc3ccc(-c4cnc([C@@H]5CCCN5C(=O)[C@H](NC(=O)OC(C)(C)C)c5ccccc5)[nH]4)cc3)cc2)[nH]1` [Compound 281] the EC50 was 1 to 9.9 nM. In the case of `C(#Cc1ccc2nc([C@@H]3CCCN3Cc3ccccc3)[nH]c2c1)c1ccc(-c2cnc([C@@H]3CCCN3Cc3ccccc3)[nH]2)cc1` [Compound 1052], the EC50 is reported as > 1000 nM. `COC(=O)N[C@H](C(=O)N1CCC[C@H]1c1nc2ccc(C#Cc3ccc(-c4cnc([C@@H]5CCCN5C(=O)[C@@H](C(C)C)N(C)C)[nH]4)cc3)cc2[nH]1)C(C)C` [Compound 865] was tested, and the EC50 was < 1 nM. In the case of `COC(=O)N[C@H](C(=O)N1CCC[C@H]1c1ncc(C#Cc2ccc(-c3ccc4nc([C@@H]5CCCN5C(=O)[C@@H](NC(=O)OC)C(C)C)[nH]c4c3)cc2)[nH]1)C(C)C` [Compound 1084], the EC50 is reported as < 1 nM.
